Several values for one entry are separate records, joined by “and”; a condition that tells them apart may be missing. Equal values may be shown once.
Tests used:
Test in all cases: cells
HT-3 = format: functional, cell-based, Homo sapiens;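 also: growth inhibition measured with a cell viability readout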
Description: SANGER: Inhibition of human HT-3 cell growth in a cell viability assay.

NCI-H1650 = format: functional, cell-based, Homo sapiens;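 also: growth inhibition of human NCI-H1650 cells measured by a cell viability assay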
Description: SANGER: Inhibition of human NCI-H1650 cell growth in a cell viability assay.

SW948 = format: functional, cell-based, Homo sapiens;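 also: growth inhibition of SW948 cells, read out with a cell viability assay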
Description: SANGER: Inhibition of human SW948 cell growth in a cell viability assay.

NMC-G1 = format: functional, cell-based, Homo sapiens;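 also: growth inhibition of the NMC-G1 cell line, measured with a cell viability read-out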
Description: SANGER: Inhibition of human NMC-G1 cell growth in a cell viability assay.

SK-N-AS = format: functional, cell-based, Homo sapiens;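 also: growth inhibition of human SK-N-AS cells, measured with a cell viability assay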
Description: SANGER: Inhibition of human SK-N-AS cell growth in a cell viability assay.

TE-1 = format: functional, cell-based, Homo sapiens;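 also: growth inhibition of the human TE-1 cell line, read out with a cell viability assay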
Description: SANGER: Inhibition of human TE-1 cell growth in a cell viability assay.

ES7 = format: functional, cell-based, Homo sapiens;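 also: growth inhibition of cultured human ES7 cells, read out as cell viability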
Description: SANGER: Inhibition of human ES7 cell growth in a cell viability assay.

SK-UT-1 = format: functional, cell-based, Homo sapiens;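 also: growth inhibition of SK-UT-1 cells, measured by a cell viability assay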
Description: SANGER: Inhibition of human SK-UT-1 cell growth in a cell viability assay.

GT3TKB = format: functional, cell-based, Homo sapiens;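 also: growth inhibition of the cell line, read out with a cell viability assay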
Description: SANGER: Inhibition of human GT3TKB cell growth in a cell viability assay.

HuP-T4 = format: functional, cell-based, Homo sapiens;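 also: cell viability assay measuring how much HuP-T4 cell growth is inhibited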
Description: SANGER: Inhibition of human HuP-T4 cell growth in a cell viability assay.

SK-N-DZ = format: functional, cell-based, Homo sapiens;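 also: growth inhibition of the cancer cell line, read out through a viability assay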
Description: SANGER: Inhibition of human SK-N-DZ cell growth in a cell viability assay.

Ca9-22 = format: functional, cell-based, Homo sapiens;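 also: growth inhibition of Ca9-22 cells, read out with a cell viability assay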
Description: SANGER: Inhibition of human Ca9-22 cell growth in a cell viability assay.

EFM-19 = format: functional, cell-based, Homo sapiens;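 also: growth inhibition of human EFM-19 cells, measured in a cell viability assay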
Description: SANGER: Inhibition of human EFM-19 cell growth in a cell viability assay.

EFO-21 = format: functional, cell-based, Homo sapiens;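 also: growth inhibition of EFO-21 cells measured with a viability assay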
Description: SANGER: Inhibition of human EFO-21 cell growth in a cell viability assay.

Calu-6 = format: functional, cell-based, Homo sapiens;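 also: growth of human Calu-6 cells, read out by a cell viability assay, IC50 marking inhibition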
Description: SANGER: Inhibition of human Calu-6 cell growth in a cell viability assay.

SW1783 = format: functional, cell-based; settings: Homo sapiens;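 also: cell growth inhibition measured with a viability assay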
Description: SANGER: Inhibition of human SW1783 cell growth in a cell viability assay.

ME-180 = format: functional, cell-based; settings: Homo sapiens;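 also: cell viability assay measuring growth inhibition of ME-180 cells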
Description: SANGER: Inhibition of human ME-180 cell growth in a cell viability assay.

MDA-MB-453 = format: functional, cell-based, Homo sapiens
Description: SANGER: Inhibition of human MDA-MB-453 cell growth in a cell viability assay.

MDA-MB-361 = format: functional, cell-based, Homo sapiens
GP5d = format: functional, cell-based, Homo sapiens;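 also: growth inhibition of human GP5d cells, read out with a cell viability assay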
Description: SANGER: Inhibition of human GP5d cell growth in a cell viability assay.

LC-2-ad = format: functional, cell-based, Homo sapiens;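 also: growth inhibition of human LC-2-ad cells, read out with a cell viability assay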
Description: SANGER: Inhibition of human LC-2-ad cell growth in a cell viability assay.

D-263MG = format: functional, cell-based, Homo sapiens
Description: SANGER: Inhibition of human D-263MG cell growth in a cell viability assay.

U-118-MG = format: functional, cell-based, Homo sapiens
Description: SANGER: Inhibition of human U-118-MG cell growth in a cell viability assay.

A253 cell line = format: functional, cell-based, Homo sapiens;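 also: growth inhibition of A253 cells, read out with a cell viability assay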
Description: SANGER: Inhibition of human A253 cell growth in a cell viability assay.

SW1573 = format: functional, cell-based, Homo sapiens;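 also: growth inhibition of SW1573 cells, read out with a cell viability assay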
Description: SANGER: Inhibition of human SW1573 cell growth in a cell viability assay.

A-375 = format: functional, cell-based, Homo sapiens;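 also: growth inhibition of A375 cells, read out with a cell viability assay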
Description: SANGER: Inhibition of human A375 cell growth in a cell viability assay.

ONS-76 = format: functional, cell-based, Homo sapiens;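 also: growth inhibition of human ONS-76 cells, read out with a cell viability assay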
Description: SANGER: Inhibition of human ONS-76 cell growth in a cell viability assay.

GAMG = format: functional, cell-based, Homo sapiens;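 also: cell growth inhibition measured by a viability assay in the GAMG human cell line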
Description: SANGER: Inhibition of human GAMG cell growth in a cell viability assay.

COLO-320-HSR = format: functional, cell-based; settings: Homo sapiens;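 also: growth inhibition of COLO-320-HSR cells, determined with a cell viability assay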
Description: SANGER: Inhibition of human COLO-320-HSR cell growth in a cell viability assay.

HT-29 = format: functional, cell-based, Homo sapiens;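 also: growth inhibition of human HT-29 cells, read out by a cell viability assay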
Description: SANGER: Inhibition of human HT-29 cell growth in a cell viability assay.

LCLC-97TM1 = format: functional, cell-based, Homo sapiens;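 also: cell viability assay measuring growth inhibition of human LCLC-97TM1 cells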
Description: SANGER: Inhibition of human LCLC-97TM1 cell growth in a cell viability assay.

KYSE-520 cell line = format: functional, cell-based, Homo sapiens;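 also: growth inhibition of human KYSE-520 cells, read out with a viability assay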
Description: SANGER: Inhibition of human KYSE-520 cell growth in a cell viability assay.

NCI-H446 = format: functional, cell-based; settings: Homo sapiens;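 also: growth inhibition of NCI-H446 cells determined by a cell viability assay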
Description: SANGER: Inhibition of human NCI-H446 cell growth in a cell viability assay.

OS-RC-2 = format: functional, cell-based, Homo sapiens;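 also: growth inhibition of human OS-RC-2 cells, measured by a cell viability assay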
Description: SANGER: Inhibition of human OS-RC-2 cell growth in a cell viability assay.

NH-12 = format: functional, cell-based, Homo sapiens;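 also: growth inhibition of NH-12 cells, read out with a cell viability assay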
Description: SANGER: Inhibition of human NH-12 cell growth in a cell viability assay.

CAMA-1 = format: functional, cell-based, Homo sapiens;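 also: growth inhibition of CAMA-1 cells, read out with a cell viability assay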
Description: SANGER: Inhibition of human CAMA-1 cell growth in a cell viability assay.

RPMI-2650 = format: functional, cell-based, Homo sapiens
Description: SANGER: Inhibition of human RPMI-2650 cell growth in a cell viability assay.

A-431 = format: functional, cell-based, Homo sapiens;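 also: growth inhibition of A-431 cells, determined with a cell viability read-out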
Description: SANGER: Inhibition of human A431 cell growth in a cell viability assay.

JVM-2 = format: functional, cell-based; settings: Homo sapiens;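 also: growth inhibition of JVM-2 cells determined by a cell viability assay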
Description: SANGER: Inhibition of human JVM-2 cell growth in a cell viability assay.

KOSC-2 = format: functional, cell-based, Homo sapiens;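 also: growth inhibition of KOSC-2 cells, read out by a cell viability assay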
Description: SANGER: Inhibition of human KOSC-2 cell growth in a cell viability assay.

NCI-H720 = format: functional, cell-based; settings: Homo sapiens;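 also: growth inhibition of human NCI-H720 cells determined by a cell viability assay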
Description: SANGER: Inhibition of human NCI-H720 cell growth in a cell viability assay.

MIA PaCa-2 = format: functional, cell-based, Homo sapiens;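 also: growth inhibition of MIA PaCa-2 cells, read out with a cell viability assay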
Description: SANGER: Inhibition of human MIA-PaCa-2 cell growth in a cell viability assay.

MFM-223 = format: functional, cell-based, Homo sapiens
Description: SANGER: Inhibition of human MFM-223 cell growth in a cell viability assay.

HCE-4 = format: functional, cell-based, Homo sapiens;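 also: cell viability assay measuring inhibition of growth in the human HCE-4 cell line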
Description: SANGER: Inhibition of human HCE-4 cell growth in a cell viability assay.

MC-IXC = format: functional, cell-based, Homo sapiens;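 also: growth inhibition of MC-IXC cells, read out with a cell viability assay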
Description: SANGER: Inhibition of human MC-IXC cell growth in a cell viability assay.

CP66-MEL = format: functional, cell-based, Homo sapiens;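 also: growth inhibition of CP66-MEL cells determined in a cell viability assay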
Description: SANGER: Inhibition of human CP66-MEL cell growth in a cell viability assay.

A388 = format: functional, cell-based, Homo sapiens;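 also: growth inhibition of human A388 cells, read out with a cell viability assay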
Description: SANGER: Inhibition of human A388 cell growth in a cell viability assay.

KM-H2 = format: functional, cell-based; settings: Homo sapiens;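 also: growth inhibition of KM-H2 cells, read out by a cell viability assay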
Description: SANGER: Inhibition of human KM-H2 cell growth in a cell viability assay.

HSC-2 = format: functional, cell-based, Homo sapiens;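 also: growth inhibition of human HSC-2 cells, read out by a cell viability assay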
Description: SANGER: Inhibition of human HSC-2 cell growth in a cell viability assay.

U2OS = format: functional, cell-based, Homo sapiens, U-2-OS;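 also: growth inhibition of human U-2-OS cells, determined with a cell viability assay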
Description: SANGER: Inhibition of human U-2-OS cell growth in a cell viability assay.

Measured: IC50

COC(=O)CNC(=O)C(=O)OC
241 µM: ONS-76; Homo sapiens, ONS-76
24.6 µM: LC-2-ad; Homo sapiens, LC-2-ad
853 µM: HT-3; Homo sapiens, HT-3
2620 µM: SW948; Homo sapiens, SW948
846 µM: HT-29; Homo sapiens, HT-29
242 µM: GT3TKB; Homo sapiens, GT3TKB
1080 µM: EFM-19; Homo sapiens, EFM-19
232 µM: A253 cell line; Homo sapiens, A253
176 µM: A-375; Homo sapiens, A-375
466 µM: NMC-G1; Homo sapiens, NMC-G1
1750 µM: OS-RC-2; Homo sapiens, OS-RC-2
156 µM: SW1783
200 µM: LCLC-97TM1; Homo sapiens, LCLC-97TM1
97.5 µM: A-431; Homo sapiens, A-431
329 µM: NCI-H1650; Homo sapiens, NCI-H1650
732 µM: Calu-6; Homo sapiens, Calu-6
128 µM: HuP-T4; Homo sapiens, HuP-T4
1380 µM: GAMG; Homo sapiens, GAMG
1050 µM: SK-UT-1; Homo sapiens, SK-UT-1
279 µM: RPMI-2650; Homo sapiens, RPMI-2650
636 µM: GP5d; Homo sapiens, GP5d
257 µM: ME-180
96.7 µM: MC-IXC; Homo sapiens, MC-IXC
924 µM: Ca9-22; Homo sapiens, Ca9-22
445 µM: CP66-MEL; Homo sapiens, CP66-MEL
646 µM: NCI-H446
2520 µM: SW1573; Homo sapiens, SW1573
478 µM: ES7; Homo sapiens, ES7
784 µM: U-118-MG; Homo sapiens, U-118-MG
410 µM: D-263MG; Homo sapiens, D-263MG
546 µM: HCE-4; Homo sapiens, HCE-4
1010 µM: TE-1; Homo sapiens, TE-1
504 µM: HSC-2; Homo sapiens, HSC-2
971 µM: SK-N-AS; Homo sapiens, SK-N-AS
2460 µM: A388; Homo sapiens, A388
3090 µM: SK-N-DZ; Homo sapiens, SK-N-DZ
613 µM: KYSE-520 cell line; Homo sapiens, KYSE-520
260 µM: EFO-21; Homo sapiens, EFO-21
> 4000 µM: MDA-MB-453; Homo sapiens, MDA-MB-453 | COLO-320-HSR | NH-12; Homo sapiens, NH-12 | CAMA-1; Homo sapiens, CAMA-1 | JVM-2 | KOSC-2; Homo sapiens, KOSC-2 | NCI-H720 | MFM-223; Homo sapiens, MFM-223 | KM-H2
139 µM: MIA PaCa-2; Homo sapiens, MIA PaCa-2
1690 µM: MDA-MB-361; Homo sapiens, MDA-MB-361

Cc1cc([C@@H](C)Nc2ccccc2C(=O)O)c2nc(N3CCOCC3)cc(=O)n2c1 [AZD-6482]
0.813 µM and 3.26 µM: ES7; es7
1.2 µM and > 5.12 µM: CAMA-1; cama-1
4.43 µM and 1.01 µM: GAMG; gamg
> 5.12 µM: HT-3; ht-3 | NCI-H1650; nci-h1650 | SW948; sw948 | NMC-G1; Homo sapiens, NMC-G1 | NMC-G1; nmc-g1 | SK-N-AS; Homo sapiens, SK-N-AS | SK-N-AS; sk-n-as | TE-1; Homo sapiens, TE-1 | TE-1; te-1 | GT3TKB; gt3tkb | HuP-T4; hup-t4 | Ca9-22; ca9-22 | EFM-19; efm-19 | Calu-6; calu-6 | ME-180 | MDA-MB-361; mda-mb-361 | GP5d; Homo sapiens, GP5d | GP5d; gp5d | LC-2-ad; lc-2-ad | A253 cell line; Homo sapiens, A253 | A253 cell line; a253 | SW1573; sw1573 | A-375; a-375 | ONS-76; ons-76 | COLO-320-HSR | HT-29; ht-29 | LCLC-97TM1; Homo sapiens, LCLC-97TM1 | LCLC-97TM1; lclc-97tm1 | KYSE-520 cell line; Homo sapiens, KYSE-520 | KYSE-520 cell line; kyse-520 | NCI-H446 | NH-12; Homo sapiens, NH-12 | NH-12; nh-12 | RPMI-2650; Homo sapiens, RPMI-2650 | RPMI-2650; rpmi-2650 | A-431; a-431 | JVM-2 | KOSC-2; kosc-2 | NCI-H720 | MIA PaCa-2; mia paca-2 | MFM-223; mfm-223 | HCE-4; hce-4 | MC-IXC; Homo sapiens, MC-IXC | MC-IXC; mc-ixc | CP66-MEL; Homo sapiens, CP66-MEL | CP66-MEL; cp66-mel | A388; a388 | KM-H2
> 5.12 µM and 3.26 µM: U-118-MG; u-118-mg
1.14 µM: HSC-2; hsc-2
> 5.12 µM and 2.17 µM: D-263MG; d-263mg
2.45 µM and > 5.12 µM: SK-UT-1; sk-ut-1
3.53 µM: MDA-MB-361; Homo sapiens, MDA-MB-361
> 5.12 µM and 2.32 µM: SK-N-DZ; sk-n-dz
5.04 µM and > 5.12 µM: EFO-21; efo-21
1.76 µM: HSC-2; Homo sapiens, HSC-2
0.624 µM and > 5.12 µM: OS-RC-2; os-rc-2
> 5.12 µM and 2.33 µM: MDA-MB-453; mda-mb-453
> 5.12 µM and 4.6 µM: U2OS; u-2-os

CN(Cc1cnc2nc(N)nc(N)c2n1)c1ccc(C(=O)N[C@@H](CCC(=O)O)C(=O)O)cc1 [METHOTREXATE]
0.0694 µM: HT-3; Homo sapiens, HT-3
> 0.2 µM: NCI-H1650; Homo sapiens, NCI-H1650 | SW948; Homo sapiens, SW948 | NMC-G1; Homo sapiens, NMC-G1 | SK-N-AS; Homo sapiens, SK-N-AS | TE-1; Homo sapiens, TE-1 | SK-UT-1; Homo sapiens, SK-UT-1 | GT3TKB; Homo sapiens, GT3TKB | HuP-T4; Homo sapiens, HuP-T4 | SK-N-DZ; Homo sapiens, SK-N-DZ | Ca9-22; Homo sapiens, Ca9-22 | EFM-19; Homo sapiens, EFM-19 | EFO-21; Homo sapiens, EFO-21 | Calu-6; Homo sapiens, Calu-6 | SW1783 | ME-180 | MDA-MB-453; Homo sapiens, MDA-MB-453 | MDA-MB-361; Homo sapiens, MDA-MB-361 | GP5d; Homo sapiens, GP5d | LC-2-ad; Homo sapiens, LC-2-ad | D-263MG; Homo sapiens, D-263MG | U-118-MG; Homo sapiens, U-118-MG | SW1573; Homo sapiens, SW1573 | A-375; Homo sapiens, A-375 | GAMG; Homo sapiens, GAMG | LCLC-97TM1; Homo sapiens, LCLC-97TM1 | KYSE-520 cell line; Homo sapiens, KYSE-520 | NCI-H446 | OS-RC-2; Homo sapiens, OS-RC-2 | NH-12; Homo sapiens, NH-12 | CAMA-1; Homo sapiens, CAMA-1 | RPMI-2650; Homo sapiens, RPMI-2650 | A-431; Homo sapiens, A-431 | JVM-2 | KOSC-2; Homo sapiens, KOSC-2 | MIA PaCa-2; Homo sapiens, MIA PaCa-2 | MFM-223; Homo sapiens, MFM-223 | HCE-4; Homo sapiens, HCE-4 | MC-IXC; Homo sapiens, MC-IXC | A388; Homo sapiens, A388 | KM-H2 | HSC-2; Homo sapiens, HSC-2
0.0638 µM: ONS-76; Homo sapiens, ONS-76
0.182 µM: U2OS; Homo sapiens, U2OS
0.148 µM: ES7; Homo sapiens, ES7
0.0524 µM: COLO-320-HSR
0.153 µM: HT-29; Homo sapiens, HT-29

O=C(c1cc(Cc2n[nH]c(=O)c3ccccc23)ccc1F)N1CCN(C(=O)C2CC2)CC1 [OLAPARIB]
> 5 µM: HT-3; Homo sapiens, HT-3 | NCI-H1650; Homo sapiens, NCI-H1650 | SW948; Homo sapiens, SW948 | NMC-G1; Homo sapiens, NMC-G1 | SK-N-AS; Homo sapiens, SK-N-AS | TE-1; Homo sapiens, TE-1 | ES7; Homo sapiens, ES7 | SK-UT-1; Homo sapiens, SK-UT-1 | GT3TKB; Homo sapiens, GT3TKB | HuP-T4; Homo sapiens, HuP-T4 | SK-N-DZ; Homo sapiens, SK-N-DZ | Ca9-22; Homo sapiens, Ca9-22 | EFM-19; Homo sapiens, EFM-19 | EFO-21; Homo sapiens, EFO-21 | Calu-6; Homo sapiens, Calu-6 | SW1783 | ME-180 | MDA-MB-453; Homo sapiens, MDA-MB-453 | MDA-MB-361; Homo sapiens, MDA-MB-361 | GP5d; Homo sapiens, GP5d | LC-2-ad; Homo sapiens, LC-2-ad | D-263MG; Homo sapiens, D-263MG | U-118-MG; Homo sapiens, U-118-MG | SW1573; Homo sapiens, SW1573 | A-375; Homo sapiens, A-375 | ONS-76; Homo sapiens, ONS-76 | GAMG; Homo sapiens, GAMG | COLO-320-HSR | HT-29; Homo sapiens, HT-29 | LCLC-97TM1; Homo sapiens, LCLC-97TM1 | KYSE-520 cell line; Homo sapiens, KYSE-520 | NCI-H446 | OS-RC-2; Homo sapiens, OS-RC-2 | NH-12; Homo sapiens, NH-12 | CAMA-1; Homo sapiens, CAMA-1 | RPMI-2650; Homo sapiens, RPMI-2650 | A-431; Homo sapiens, A-431 | JVM-2 | KOSC-2; Homo sapiens, KOSC-2 | U2OS; Homo sapiens, U2OS | MIA PaCa-2; Homo sapiens, MIA PaCa-2 | MFM-223; Homo sapiens, MFM-223 | HCE-4; Homo sapiens, HCE-4 | A388; Homo sapiens, A388 | KM-H2 | HSC-2; Homo sapiens, HSC-2
2.21 µM: NCI-H720
3.63 µM: MC-IXC; Homo sapiens, MC-IXC
